# Entries after “also recorded” stand apart in the source; their conditions may differ.
# How the values were obtained:
# [1] = Iron saturation by ICP-AES; format: physicochemical
# From the text: The skilled person will appreciate that transferrin iron saturation levels can be readily determined without undue burden by quantifying the total iron levels in a sample having a known transferrin concentration. The total iron levels in sample can be measured by any one of a number of methods know by those of skill in the art. Suitable examples include: • Colorimetric assays—Iron is quantitated by measuring the intensity of the violet complex formed in the reaction between ferrozine and Fe^2+ in acetate buffer at 562 nm. Thiourea or other chemicals can be added to complex contaminant metals such Cu^2+, which can also bind with ferrozine and yield falsely elevated iron values. See Ceriotti et al., Improved direct specific determination of serum iron and total iron-binding capacity Clin Chem. 1980, 26(2), 327-31, the contents of which are incorporated herein by reference. • Inductively Coupled Plasma Atomic Emission Spectroscopy (ICP-AES)—is an emission spectroscopy technique that quantifies the mass percentage of metals in a sample. ICP-AES is based on the excitation of metal atoms/ions in the sample using a plasma (an ionized gas consisting of positive ions and free electrons) and analyzing the emission wavelength of the electromagnetic radiation, which is typical of that particular metal. Even though the technique is a standard analytical technique within common general knowledge of the skilled person, further information on ICP-AES can be found in Manley et al., Simultaneous Cu-, Fe-, and Zn-specific detection of metalloproteins contained in rabbit plasma by size-exclusion chromatography-inductively coupled plasma atomic emission spectroscopy. J Biol Inorg Chem. 2009, 14, 61-74, the contents of which are incorporated herein by reference.
# The preferred method of determining the iron content of a sample for the purposes of the therapeutic method of the present invention is ICP-AES. The iron saturation of transferrin is then calculated based on the transferrin protein concentration, total iron content of the sample, and the fact that wild type transferrin has two iron-binding sites. Wild type human transferrin (molecular weight 79,750) can bind two iron atoms such that a sample containing 1 g of transferrin would be 100% saturated by 1.4 mg of iron.
# Protein purity was determined by SDS-PAGE. Iron saturation levels were determined using ICP-AES in accordance with the procedures outlined in Manley et al., J Biol Inorg Chem (2009) 14:61-74, the contents of which are incorporated herein by reference.
# [2] = tested on: primary human brain cortex-derived neural progenitor cells; test: Differentiation of primary human neural progenitor cells (β-III-tubulin / GFAP staining); format: cell-based; details: 0.8 mg/mL, 72 hours
# Experimental: Neural progenitor cells maintained as neurospheres were obtained from Lonza (PT-2599). Cells were thawed from a frozen vial of neurospheres and cultured in Human NeuroCult™ NS-A Complete Proliferation media (Stemcell Technologies) for 2 weeks. Neurospheres were dissociated to single cells and plated in Laminin coated wells of assay plates. The neural progenitor cells were seeded in NeuroCult™ NS-A Basal media containing 1/10th concentration of the recommended proliferation supplements, in the absence or presence of ApoTf (0.8 mg/mL) for 72 hours. At the time of analysis, cells were fixed with paraformaldehyde, stained for β-III-tubulin (R&D Systems, MAB1195) and GFAP (Invitrogen, PA3-16727), and imaged on a Molecular Devices Nano imaging instrument. Image analysis was performed by assessing the relative numbers of cells staining positive for β-III-tubulin or GFAP. Values for the indicated conditions are shown with standard deviations as “% β-III-Tubulin Positive” cells (FIG. 2A) or “% GFAP Positive” cells (FIG. 2B).
# HIF-1α = details: reported in US2016008437; cited from earlier work
substance,measurement,setting,value
"apo-transferrin: iron-free form of transferrin protein, obtained and purified from pooled human plasma",Iron Saturation (%),[1],< 0.3%
same,% β-III-Tubulin Positive cells (neurons),[2]; FIG. 2A,dramatically increases the percentage of cells differentiated to neurons; also recorded: induces primary human neural progenitor cells to become β-III-tubulin protein positive neurons
same,% GFAP Positive cells (astrocytes),[2]; FIG. 2B,dramatically increases; also recorded: GFAP protein positive astrocytes cells
same,HIF-1α production,HIF-1α,can induce HIF-1α production
